Target: recombinant human His-ATG7 enzyme (Homo sapiens (Human), UniProt O95352)
Test: ATG7 Enzyme Assay (HTRF/FRET, ATG3-GST and Flag-Gabarap)
Format: biochemical
Details: for inhibition at 0.111 µM: Concentration 0.111 μM; for inhibition at 0.123 µM: Concentration 0.123 μM
Summary of the method: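 0.15 nM His-ATG7 was reacted with 5 nM ATG3-GST, 5 nM Flag-Gabarap and 10 μM ATP in HEPES pH 7.5 containing MgCl2, GSH and TCEP for 105 min at 24° C, then stopped with EDTA/KF. Eu-anti-Flag and anti-GST-APC HTRF was read after 2 h. Results are given as single-concentration % inhibition or IC50.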

recombinant human His-ATG7 enzyme, sequence (O95352 whole entry): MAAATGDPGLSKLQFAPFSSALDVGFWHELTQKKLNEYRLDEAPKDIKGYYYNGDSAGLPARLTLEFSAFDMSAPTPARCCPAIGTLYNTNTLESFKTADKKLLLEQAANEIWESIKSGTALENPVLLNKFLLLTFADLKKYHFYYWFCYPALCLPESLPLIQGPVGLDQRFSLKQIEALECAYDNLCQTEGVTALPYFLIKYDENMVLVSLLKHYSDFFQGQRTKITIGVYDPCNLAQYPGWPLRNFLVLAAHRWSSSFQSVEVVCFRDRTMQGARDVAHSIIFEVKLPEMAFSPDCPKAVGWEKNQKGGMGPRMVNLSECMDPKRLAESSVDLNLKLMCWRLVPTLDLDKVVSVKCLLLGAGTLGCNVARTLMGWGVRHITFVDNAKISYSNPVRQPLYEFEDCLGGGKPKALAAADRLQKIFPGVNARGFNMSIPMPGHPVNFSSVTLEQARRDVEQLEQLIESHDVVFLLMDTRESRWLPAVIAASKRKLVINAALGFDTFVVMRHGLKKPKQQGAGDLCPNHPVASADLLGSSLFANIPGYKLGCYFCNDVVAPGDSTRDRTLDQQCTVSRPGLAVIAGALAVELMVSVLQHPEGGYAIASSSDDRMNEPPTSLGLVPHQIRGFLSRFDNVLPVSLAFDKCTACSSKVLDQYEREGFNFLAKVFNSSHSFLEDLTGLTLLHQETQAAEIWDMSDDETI

| SMILES | IC50 [nM] | inhibition at 0.111 µM (read-out: Percent Inhibition) [%] | inhibition at 0.123 µM (read-out: Percent Inhibition) [%] | inhibition at 0.069 µM (Concentration 0.069 μM, read-out: Percent Inhibition) [%] |
| --- | --- | --- | --- | --- |
| Nc1ncnc2c1c(Sc1cn[nH]c1)nn2[C@@H]1O[C@H](COS(N)(=O)=O)[C@@H](O)[C@H]1O [Compound I-36, {(2R,3S,4R,5R)-5-[4-amino-3-(1H-pyrazol-4-ylsulfanyl)-1H-pyrazolo[3,4-d]pyrimidin-1-yl]-3,4-dihydroxytetrahydrofuran-2-yl}methyl sulfamate] | < 20 | 88 |  |  |
| CC(O)CSc1nn([C@@H]2O[C@H](COS(N)(=O)=O)[C@@H](O)[C@H]2O)c2ncnc(N)c12 (single isomer, unassigned) [Compound I-55b, [(2R,3S,4R,5R)-5-(4-amino-3-{[(2R)-2-hydroxypropyl]sulfanyl}-1H-pyrazolo[3,4-d]pyrimidin-1-yl)-3,4-dihydroxytetrahydrofuran-2-yl]methyl sulfamate or [(2R,3S,4R,5R)-5-(4-amino-3-{[(2S)-2-hydroxypropyl]sulfanyl}-1H-pyrazolo[3,4-d]pyrimidin-1-yl)-3,4-dihydroxytetrahydrofuran-2-yl]methyl Sulfamate] | 50 to 100 |  | 68 |  |
| Nc1ncnc2c1c(Sc1cccc(C(F)(F)F)c1)nn2[C@@H]1O[C@H](COS(N)(=O)=O)[C@@H](O)[C@@H]1F [Compound I-158, [(2R,3R,4S,5R)-5-(4-amino-3-{[3-(trifluoromethyl)phenyl]sulfanyl}-1H-pyrazolo[3,4-d]pyrimidin-1-yl)-4-fluoro-3-hydroxytetrahydrofuran-2-yl]methyl sulfamate] | 50 to 100 | 56 |  |  |
| Nc1ncnc2c1c(Sc1cccc3ccccc13)nn2[C@@H]1O[C@H](COS(N)(=O)=O)[C@@H](O)[C@H]1O [Compound I-84, {(2R,3S,4R,5R)-5-[4-amino-3-(1-naphthylsulfanyl)-1H-pyrazolo[3,4-d]pyrimidin-1-yl]-3,4-dihydroxytetrahydrofuran-2-yl}methyl sulfamate] | 50 to 100 |  | 62 |  |
| NCc1nn([C@@H]2O[C@H](COS(N)(=O)=O)[C@@H](O)[C@H]2O)c2ncnc(N)c12 [Compound I-15, {(2R,3S,4R,5R)-5-[4-amino-3-(aminomethyl)-1H-pyrazolo[3,4-d]pyrimidin-1-yl]-3,4-dihydroxytetrahydrofuran-2-yl}methyl Sulfamate] | > 500 |  |  | 16 |
| Nc1ncnc2c1c(SC(F)F)nn2[C@@H]1O[C@H](COS(N)(=O)=O)[C@@H](O)[C@@H]1F [Compound I-98, [(2R,3R,4S,5R)-5-{4-amino-3-[(difluoromethyl)sulfanyl]-1H-pyrazolo[3,4-d]pyrimidin-1-yl}-4-fluoro-3-hydroxytetrahydrofuran-2-yl]methyl sulfamate] | 20 to 50 | 77 |  |  |
| Nc1ncnc2c1c(SC1CCCC1)nn2[C@@H]1O[C@H](COS(N)(=O)=O)[C@@H](O)[C@H]1O [Compound I-62, {(2R,3S,4R,5R)-5-[4-amino-3-(cyclopentylsulfanyl)-1H-pyrazolo[3,4-d]pyrimidin-1-yl]-3,4-dihydroxytetrahydrofuran-2-yl}methyl sulfamate] | < 20 |  | 89 |  |
| Nc1ncnc2c1c(OC(F)F)nn2[C@@H]1O[C@H](COS(N)(=O)=O)[C@@H](O)[C@H]1O [Compound I-27, {(2R,3S,4R,5R)-5-[4-amino-3-(difluoromethoxy)-1H-pyrazolo[3,4-d]pyrimidin-1-yl]-3,4-dihydroxytetrahydrofuran-2-yl}methyl Sulfamate] | 20 to 50 |  | 78 |  |
| Nc1ncnc2c1c(SC1CCC1)nn2[C@@H]1O[C@H](COS(N)(=O)=O)[C@@H](O)[C@@H]1F [Compound I-147, {(2R,3R,4S,5R)-5-[4-amino-3-(cyclobutylsulfanyl)-1H-pyrazolo[3,4-d]pyrimidin-1-yl]-4-fluoro-3-hydroxytetrahydrofuran-2-yl}methyl sulfamate] | < 20 | 89 |  |  |
| Cc1ccc(Sc2nn([C@H]3C[C@H](O)[C@H](COS(N)(=O)=O)O3)c3ncnc(N)c23)cc1 [Compound I-214, [(2S,3S,5R)-5-{4-amino-3-[(4-methylphenyl)sulfanyl]-1H-pyrazolo[3,4-d]pyrimidin-1-yl}-3-hydroxytetrahydrofuran-2-yl]methyl sulfamate] | 100 to 500 | 43 |  |  |

Now from value to molecule:

| IC50 [nM] | inhibition at 0.111 µM (read-out: Percent Inhibition) [%] | inhibition at 0.123 µM (read-out: Percent Inhibition) [%] | inhibition at 0.069 µM (Concentration 0.069 μM, read-out: Percent Inhibition) [%] | SMILES |
| --- | --- | --- | --- | --- |
| 50 to 100 | 61 |  |  | Nc1ncnc2c1c(SCc1cccnn1)nn2[C@@H]1O[C@H](COS(N)(=O)=O)[C@@H](O)[C@@H]1F [Compound I-127, [(2R,3R,4S,5R)-5-{4-amino-3-[(pyridazin-3-ylmethyl)sulfanyl]-1H-pyrazolo[3,4-d]pyrimidin-1-yl}-4-fluoro-3-hydroxytetrahydrofuran-2-yl]methyl sulfamate] |
| < 20 | 86 |  |  | Cc1cccc(Sc2nn([C@@H]3O[C@H](COS(N)(=O)=O)[C@@H](O)[C@H]3O)c3ncnc(N)c23)c1 [Compound I-69, [(2R,3S,4R,5R)-5-{4-amino-3-[(3-methylphenyl)sulfanyl]-1H-pyrazolo[3,4-d]pyrimidin-1-yl}-3,4-dihydroxytetrahydrofuran-2-yl]methyl sulfamate] |
| 20 to 50 |  | 76 |  | Cc1cccc(Sc2nn([C@@H]3O[C@H](COS(N)(=O)=O)[C@@H](O)[C@@H]3F)c3ncnc(N)c23)c1 [Compound I-141, [(2R,3R,4S,5R)-5-{4-amino-3-[(3-methylphenyl)sulfanyl]-1H-pyrazolo[3,4-d]pyrimidin-1-yl}-4-fluoro-3-hydroxytetrahydrofuran-2-yl]methyl Sulfamate] |
| < 20 | 90 |  |  | Cc1ccnc(Sc2nn([C@@H]3O[C@H](COS(N)(=O)=O)[C@@H](O)[C@@H]3F)c3ncnc(N)c23)c1 [Compound I-114, [(2R,3R,4S,5R)-5-{4-amino-3-[(4-methylpyridin-2-yl)sulfanyl]-1H-pyrazolo[3,4-d]pyrimidin-1-yl}-4-fluoro-3-hydroxytetrahydrofuran-2-yl]methyl sulfamate] |
| 100 to 500 | 44 |  |  | Cc1csc(Sc2nn([C@H]3C[C@H](O)[C@@H](COS(N)(=O)=O)O3)c3ncnc(N)c23)n1 [Compound I-208, [(2R,3S,5R)-5-{4-amino-3-[(4-methyl-1,3-thiazol-2-yl)sulfanyl]-1H-pyrazolo[3,4-d]pyrimidin-1-yl}-3-hydroxytetrahydrofuran-2-yl]methyl sulfamate] |
| 20 to 50 |  | 85 |  | CCSc1nn([C@@H]2O[C@H](COS(N)(=O)=O)[C@@H](O)[C@H]2O)c2ncnc(N)c12 [Compound I-51, {(2R,3S,4R,5R)-5-[4-amino-3-(ethylsulfanyl)-1H-pyrazolo[3,4-d]pyrimidin-1-yl]-3,4-dihydroxytetrahydrofuran-2-yl}methyl sulfamate] |
| > 500 | 5 |  |  | Nc1ncnc2c1cnn2[C@H]1C[C@H](O)C(COS(N)(=O)=O)O1 (stereo in doubt) [Compound I-226, [(2S,3S,5R)-5-(4-amino-1H-pyrazolo[3,4-d]pyrimidin-1-yl)-3-hydroxytetrahydrofuran-2-yl]methyl sulfamate] |
| 100 to 500 | 35 |  |  | Nc1ncnc2c1c(Sc1ccc(F)cc1)nn2[C@H]1C[C@H](O)[C@H](COS(N)(=O)=O)O1 [Compound I-223, [(2S,3S,5R)-5-{4-amino-3-[(4-fluorophenyl)sulfanyl]-1H-pyrazolo[3,4-d]pyrimidin-1-yl}-3-hydroxytetrahydrofuran-2-yl]methyl sulfamate] |

From US10865208B2, “ATG7 inhibitors and the uses thereof” (Millennium Pharmaceuticals, Inc., priority 2016, dated 2020)
